The record followed here is patent US12522595B2, “Bicyclic ether O-glycoprotein-2-acetamido-2-deoxy-3-D-glucopyranosidase inhibitors” (BIOGEN MA INC., priority 2019, dated 2026).

Molecules are shown by their SMILES.

A word on the IC50: it is the concentration that gives 50% inhibition.

This test addresses T1, Recombinant full length human OGA enzyme (Homo sapiens, UniProt O60502).
T1 construct: Recombinant full length human OGA enzyme was purchased from Origene; purchased Origene
T1 sequence (O60502 1-916): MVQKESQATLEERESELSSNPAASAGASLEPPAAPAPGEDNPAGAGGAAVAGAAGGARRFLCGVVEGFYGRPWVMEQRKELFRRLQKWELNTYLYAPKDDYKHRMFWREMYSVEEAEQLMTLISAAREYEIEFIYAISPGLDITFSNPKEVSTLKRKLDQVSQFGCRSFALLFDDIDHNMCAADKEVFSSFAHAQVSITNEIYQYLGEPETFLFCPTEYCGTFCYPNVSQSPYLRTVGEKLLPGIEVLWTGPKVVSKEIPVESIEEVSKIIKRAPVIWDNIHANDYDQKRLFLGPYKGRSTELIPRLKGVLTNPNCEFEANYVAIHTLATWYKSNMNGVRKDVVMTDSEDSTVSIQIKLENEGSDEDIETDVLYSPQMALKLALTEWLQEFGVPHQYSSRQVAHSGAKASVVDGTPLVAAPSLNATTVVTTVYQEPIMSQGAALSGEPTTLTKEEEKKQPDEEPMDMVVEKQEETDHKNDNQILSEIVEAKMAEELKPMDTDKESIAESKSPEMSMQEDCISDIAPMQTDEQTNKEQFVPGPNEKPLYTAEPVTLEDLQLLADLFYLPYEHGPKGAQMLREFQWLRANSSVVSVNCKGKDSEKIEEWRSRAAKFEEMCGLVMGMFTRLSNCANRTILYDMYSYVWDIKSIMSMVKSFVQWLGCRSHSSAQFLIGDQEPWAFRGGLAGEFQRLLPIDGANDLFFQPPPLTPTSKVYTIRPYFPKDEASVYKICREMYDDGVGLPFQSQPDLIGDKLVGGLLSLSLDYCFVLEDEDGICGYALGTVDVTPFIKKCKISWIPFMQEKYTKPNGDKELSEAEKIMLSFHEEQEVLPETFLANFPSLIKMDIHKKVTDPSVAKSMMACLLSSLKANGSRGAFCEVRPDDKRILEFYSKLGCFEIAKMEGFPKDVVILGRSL
Description: OGA enzyme inhibition biochemical assay. As to conditions: 1 nM OGA, 100 μM 4-MUGlcNAc (Km), pH 6.4, 90 minutes at room temperature, 10-point dose-response from 20 μM. Summed up:
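1 nM OGA with 100 μM 4-MUGlcNAc (Km) in McIlvaine buffer pH 6.4, 0.01% BSA, 90 min at room temperature; quenched with 3M glycine pH 10, fluorescence Ex 355/Em 460 nm. 10-point, 4-fold dilutions from 20 μM; 4-parameter variable-slope fit.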
Turning to `CC(=O)Nc1nc(F)c(CN2C[C@H](Oc3cn4cccnc4n3)C[C@@H]2C)s1` [Example 92, N-(4-fluoro-5-(((2S,4R)-4-(imidazo[1,2-a]pyrimidin-2-yloxy)-2-methylpyrrolidin-1-yl)methyl)thiazol-2-yl)acetamide], the IC50 was < 1 nM.
Next, `CC(=O)Nc1ncc(CN2C[C@H](Oc3ncnc4ccoc34)C[C@@H]2C)s1` [Example 71, N-(5-(((2S,4R)-4-(furo[3,2-d]pyrimidin-4-yloxy)-2-methylpyrrolidin-1-yl)methyl)thiazol-2-yl)acetamide]: < 1 nM; `CC(=O)Nc1nc(F)c(CN2C[C@H](Oc3cccc4ncnn34)C[C@@H]2C)s1` [Example 102, N-(5-(((2S,4R)-4-([1,2,4]triazolo[1,5-a]pyridin-5-yloxy)-2-methylpyrrolidin-1-yl)methyl)-4-fluorothiazol-2-yl)acetamide]: < 1 nM.
Next, `CC(=O)Nc1nc(F)c(CN2C[C@H](Oc3ncnc4cccc(F)c34)C[C@@H]2C)s1` [Example 124, N-(4-fluoro-5-(((2S,4R)-4-((5-fluoroquinazolin-4-yl)oxy)-2-methylpyrrolidin-1-yl)methyl)thiazol-2-yl)acetamide]: < 1 nM; `CC(=O)Nc1nc(F)c(CN2C[C@H](Oc3nccc4ncccc34)C[C@@H]2C)s1` [Example 114, N-(5-(((2S,4R)-4-((1,6-naphthyridin-5-yl)oxy)-2-methylpyrrolidin-1-yl)methyl)-4-fluorothiazol-2-yl)acetamide]: < 1 nM.
Next, `CC(=O)Nc1ncc(CN2C[C@H](Oc3ncnc4occc34)C[C@@H]2C)s1` [Example 46, N-(5-(((2S,4R)-4-(furo[2,3-d]pyrimidin-4-yloxy)-2-methylpyrrolidin-1-yl)methyl)thiazol-2-yl)acetamide]: 1.1 nM; `CC(=O)Nc1nc(F)c(CN2C[C@H](Oc3nccc4ncnn34)C[C@@H]2C)s1` [Example 145, N-(5-(((2S,4R)-4-([1,2,4]triazolo[1,5-c]pyrimidin-5-yloxy)-2-methylpyrrolidin-1-yl)methyl)-4-fluorothiazol-2-yl)acetamide]: < 1 nM.
Take `CC(=O)Nc1nc(F)c(CN2C[C@H](Oc3cn4nccc4cn3)C[C@@H]2C)s1` [Example 171, N-(4-fluoro-5-(((2S,4R)-2-methyl-4-(pyrazolo[1,5-a]pyrazin-6-yloxy)pyrrolidin-1-yl)methyl)thiazol-2-yl)acetamide]: the IC50 was < 1 nM.
The result for `CC(=O)Nc1nc(F)c(CN2C[C@H](Oc3nccc4nccn34)C[C@@H]2C)s1` [Example 98, N-(4-fluoro-5-(((2S,4R)-4-(imidazo[1,2-c]pyrimidin-5-yloxy)-2-methylpyrrolidin-1-yl)methyl)thiazol-2-yl)acetamide] reads < 1 nM.
Next, `CC(=O)Nc1ncc(CN2C[C@H](Oc3cc4cnn(C)c4cn3)C[C@@H]2C)s1` [Example 88, N-(5-(((2S,4R)-2-methyl-4-((1-methyl-1H-pyrazolo[3,4-c]pyridin-5-yl)oxy)pyrrolidin-1-yl)methyl)thiazol-2-yl)acetamide]: < 1 nM; `CC(=O)Nc1ncc(CN2C[C@H](Oc3ccn4ccnc4c3)C[C@@H]2C)s1` [Example 42, N-(5-(((2S,4R)-4-(imidazo[1,2-a]pyridin-7-yloxy)-2-methylpyrrolidin-1-yl)methyl)thiazol-2-yl)acetamide]: < 1 nM; `CC(=O)Nc1nc(F)c(CN2C[C@H](Oc3noc4cc(F)ccc34)C[C@@H]2C)s1` [Example 126, N-(4-fluoro-5-(((2S,4R)-4-((6-fluorobenzo[d]isoxazol-3-yl)oxy)-2-methylpyrrolidin-1-yl)methyl)thiazol-2-yl)acetamide]: 3.1 nM.
The result for `CC(=O)Nc1nc(F)c(CN2C[C@H](Oc3ncnn4cccc34)C[C@@H]2C)s1` [Example 106, N-(4-fluoro-5-(((2S,4R)-2-methyl-4-(pyrrolo[2,1-f][1,2,4]triazin-4-yloxy)pyrrolidin-1-yl)methyl)thiazol-2-yl)acetamide] reads < 1 nM.
Take `CC(=O)Nc1nc(F)c(CN2C[C@H](Oc3ccc4ncnn4c3C)C[C@@H]2C)s1` [Example 105, N-(4-fluoro-5-(((2S,4R)-2-methyl-4-((5-methyl-[1,2,4]triazolo[1,5-a]pyridin-6-yl)oxy)pyrrolidin-1-yl)methyl)thiazol-2-yl)acetamide]: the IC50 was < 1 nM.
The result for `CC(=O)Nc1nc(F)c(CN2C[C@H](Oc3cccc4nccn34)C[C@@H]2C)s1` [Example 64, N-(4-fluoro-5-(((2S,4R)-4-(imidazo[1,2-a]pyridin-5-yloxy)-2-methylpyrrolidin-1-yl)methyl)thiazol-2-yl)acetamide] reads < 1 nM; that for `CC(=O)Nc1ncc(CN2C[C@H](Oc3nccn4ccnc34)C[C@@H]2C)s1` [Example 95, N-(5-(((2S,4R)-4-(imidazo[1,2-a]pyrazin-8-yloxy)-2-methylpyrrolidin-1-yl)methyl)thiazol-2-yl)acetamide], 5.3 nM; that for `CC(=O)Nc1ncc(CN2C[C@H](Oc3ncc4c(n3)CCCC4)C[C@@H]2C)s1` [Example 10, N-(5-(((2S,4R)-2-methyl-4-((5,6,7,8-tetrahydroquinazolin-2-yl)oxy)pyrrolidin-1-yl)methyl)thiazol-2-yl)acetamide], < 1 nM.
The result for `CC(=O)Nc1nc(F)c(CN2C[C@H](Oc3ccc4nccn4n3)C[C@@H]2C)s1` [Example 108, N-(4-fluoro-5-(((2S,4R)-4-(imidazo[1,2-b]pyridazin-6-yloxy)-2-methylpyrrolidin-1-yl)methyl)thiazol-2-yl)acetamide] reads < 1 nM.
The result for `CC(=O)Nc1nc(F)c(CN2C[C@H](Oc3cccc4nnnn34)C[C@@H]2C)s1` [Example 147, N-(4-fluoro-5-(((2S,4R)-2-methyl-4-(tetrazolo[1,5-a]pyridin-5-yloxy)pyrrolidin-1-yl)methyl)thiazol-2-yl)acetamide] reads < 1 nM.
Take `CC(=O)Nc1ncc(CN2C[C@H](Oc3ncnc4sc(C(F)F)nc34)C[C@@H]2C)s1` [Example 36]: the IC50 was found to be 780 nM.
The result for `CC(=O)Nc1ncc(CN2C[C@H](Oc3nccn4nc(C(F)(F)F)cc34)C[C@@H]2C)s1` [Example 28, N-(5-(((2S,4R)-2-methyl-4-((2-(trifluoromethyl)pyrazolo[1,5-a]pyrazin-4-yl)oxy)pyrrolidin-1-yl)methyl)thiazol-2-yl)acetamide] reads 5.4 nM.
`CC(=O)Nc1nc(F)c(CN2C[C@H](Oc3ccc4c(cnn4C(F)F)n3)C[C@@H]2C)s1` [Example 153, N-(5-(((2S,4R)-4-((1-(difluoromethyl)-1H-pyrazolo[4,3-b]pyridin-5-yl)oxy)-2-methylpyrrolidin-1-yl)methyl)-4-fluorothiazol-2-yl)acetamide]: the IC50 is < 1 nM.
As for `CC(=O)Nc1nc(F)c(CN2C[C@H](Oc3cccn4nccc34)C[C@@H]2C)s1` [Example 141, N-(4-fluoro-5-(((2S,4R)-2-methyl-4-(pyrazolo[1,5-a]pyridin-4-yloxy)pyrrolidin-1-yl)methyl)thiazol-2-yl)acetamide], the IC50 is < 1 nM.
The result for `CC(=O)Nc1ncc(CN2C[C@H](Oc3ccc4ccc(F)cc4n3)C[C@@H]2C)s1` [Example 6, N-(5-(((2S,4R)-4-((7-fluoroquinolin-2-yl)oxy)-2-methylpyrrolidin-1-yl)methyl)thiazol-2-yl)acetamide] reads < 1 nM; that for `CC(=O)Nc1nc(F)c(CN2C[C@H](Oc3ccc4ccn(C)c4n3)C[C@@H]2C)s1` [Example 163, N-(4-fluoro-5-(((2S,4R)-2-methyl-4-((1-methyl-1H-pyrrolo[2,3-b]pyridin-6-yl)oxy)pyrrolidin-1-yl)methyl)thiazol-2-yl)acetamide], < 1 nM; that for `CC(=O)Nc1nc(F)c(CN2C[C@H](Oc3ccc4nn(C)nc4n3)C[C@@H]2C)s1` [Example 151, N-(4-fluoro-5-(((2S,4R)-2-methyl-4-((2-methyl-2H-[1,2,3]triazolo[4,5-b]pyridin-5-yl)oxy)pyrrolidin-1-yl)methyl)thiazol-2-yl)acetamide], < 1 nM.
The result for `COc1cc2c(O[C@@H]3C[C@H](C)N(Cc4sc(NC(C)=O)nc4F)C3)ccnc2cc1F` [Example 128, N-(4-fluoro-5-(((2S,4R)-4-((7-fluoro-6-methoxyquinolin-4-yl)oxy)-2-methylpyrrolidin-1-yl)methyl)thiazol-2-yl)acetamide] reads < 1 nM.
